Experimental data published in ChEMBL document CHEMBL5463723, “Data for DCP probe BIBO3304” (2023).

Legend:
[1] = molecular target: Protein kinase C beta type (Homo sapiens) (UniProt P05771); test: Inhibitor of PKCBETA in the Eurofins Panlabs screen (BI) by Radioactive Assay; details: Compound concentration 10.0 uM
[2] = species on record: Oryctolagus cuniculus; test: Activity against 5HT3/RB in the Eurofins Panlabs screen (BI) by Radioactive Assay; details: Compound concentration 10.0 uM
[3] = molecular target: LTB4 receptor (Cavia porcellus) (UniProt Q9WTK1); test: Activity against LTB4GP in the Eurofins Panlabs screen (BI) by Radioactive Assay; details: Compound concentration 10.0 uM
[4] = molecular target: hERG (KCNH2) (Homo sapiens, UniProt Q12809); test: Inhibitor of HERG_DOFETILIDE in the Eurofins Cerep SafetyScreen44 (BI) by Scintillation counting (Cerep_4094); set-up: scale not given: the % may be the effect or the level left; details: probe [3H] dofetilide, compound concentration 10 uM, read-out: % Ctrl
[5] = molecular target: Adenosine receptor A2a (Homo sapiens) (UniProt P29274); test: A2A Eurofins-Cerep binding assay; set-up: ligand concentration 6 nM; details: Compound concentration 10.0 uM
[6] = molecular target: Histamine H3 receptor (Rattus norvegicus) (UniProt Q9QYN8); test: Activity against H3/R in the Eurofins Panlabs screen (BI) by […]; details: Compound concentration 10.0 uM
[7] = molecular target: Muscarinic acetylcholine receptor M2 (Rattus norvegicus) (UniProt P10980); test: Activity against M2/R in the Eurofins Panlabs screen (BI) by Radioactive Assay; details: Compound concentration 10.0 uM
[8] = molecular target: Leukotriene C4 synthase (Cavia porcellus) (UniProt A6XA80); test: Inhibitor of LTC4SYN in the Eurofins Panlabs screen (BI) by Radioactive Assay; details: Compound concentration […] uM
[9] = species on record: Mus musculus; test: Inhibitor of PHORBOLE/M in the Eurofins Panlabs screen (BI) by Radioactive Assay; details: Compound concentration 10.0 uM
[10] = molecular target: D(1B) dopamine receptor (Homo sapiens) (UniProt P21918); test: Activity against D5/HU in the Eurofins Panlabs screen (BI) by Radioactive Assay; details: Compound concentration 10.0 uM
[11] = molecular target: Delta-type opioid receptor (Homo sapiens) (UniProt P41143); test: delta (DOP) Eurofins-Cerep binding assay; set-up: ligand concentration 0.5 nM; details: Compound concentration 10.0 uM
Delta-type opioid receptor (Homo sapiens), sequence (P41143 whole entry): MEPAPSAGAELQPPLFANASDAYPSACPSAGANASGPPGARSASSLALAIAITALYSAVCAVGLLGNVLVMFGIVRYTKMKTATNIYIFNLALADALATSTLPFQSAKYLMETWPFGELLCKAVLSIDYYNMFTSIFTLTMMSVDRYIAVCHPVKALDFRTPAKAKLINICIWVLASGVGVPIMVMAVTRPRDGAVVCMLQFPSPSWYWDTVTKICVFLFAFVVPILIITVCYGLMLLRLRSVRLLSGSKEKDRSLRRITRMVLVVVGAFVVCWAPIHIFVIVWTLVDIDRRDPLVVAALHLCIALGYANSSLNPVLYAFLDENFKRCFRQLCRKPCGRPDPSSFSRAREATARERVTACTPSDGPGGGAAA

[12] = molecular target: Small conductance calcium-activated potassium channel protein 1 (Rattus norvegicus) (UniProt P70606); test: Activity against K+/SKCA in the Eurofins Panlabs screen (BI) by Radioactive Assay; details: Compound concentration 10.0 uM
[13] = molecular target: Gastrin/cholecystokinin type B receptor (Mus musculus) (UniProt P56481); test: Activity against CCKB/M in the Eurofins Panlabs screen (BI); details: Compound concentration 10.0 uM
[14] = molecular target: 5-hydroxytryptamine receptor 2B (Homo sapiens) (UniProt P41595); test: 5-HT2B Eurofins-Cerep binding assay; details: Compound concentration 10.0 uM
[15] = molecular target: Adenosine receptor A1 (Rattus norvegicus) (UniProt P25099); test: Activity against A1/R in the Eurofins Panlabs screen (BI) by Radioactive Assay; details: Compound concentration 10.0 uM
[16] = species on record: Rattus norvegicus; test: Activity against BZD/CENTR/R in the Eurofins Cerep SafetyScreen44 (BI) by Radioactive Assay (Cerep_28); type: protein-complex assay; details: Compound concentration 10.0 uM
[17] = species on record: Cavia porcellus; test: Activity against SIGMA/NS/GP in the Eurofins Panlabs screen (BI) by Radioactive Assay; details: Compound concentration 10.0 uM
[18] = molecular target: Cysteinyl leukotriene receptor 1 (Cavia porcellus) (UniProt Q2NNR5); test: Activity against LTD4/GP in the Eurofins Panlabs screen (BI) by Radioactive Assay; details: Compound concentration 10.0 uM
[19] = molecular target: Sodium-dependent noradrenaline transporter (Homo sapiens) (UniProt P23975); test: norepinephrine transporter Eurofins-Cerep binding assay; set-up: ligand concentration 1 nM; details: Compound concentration 10.0 uM
Sodium-dependent noradrenaline transporter (Homo sapiens), sequence (P23975 whole entry): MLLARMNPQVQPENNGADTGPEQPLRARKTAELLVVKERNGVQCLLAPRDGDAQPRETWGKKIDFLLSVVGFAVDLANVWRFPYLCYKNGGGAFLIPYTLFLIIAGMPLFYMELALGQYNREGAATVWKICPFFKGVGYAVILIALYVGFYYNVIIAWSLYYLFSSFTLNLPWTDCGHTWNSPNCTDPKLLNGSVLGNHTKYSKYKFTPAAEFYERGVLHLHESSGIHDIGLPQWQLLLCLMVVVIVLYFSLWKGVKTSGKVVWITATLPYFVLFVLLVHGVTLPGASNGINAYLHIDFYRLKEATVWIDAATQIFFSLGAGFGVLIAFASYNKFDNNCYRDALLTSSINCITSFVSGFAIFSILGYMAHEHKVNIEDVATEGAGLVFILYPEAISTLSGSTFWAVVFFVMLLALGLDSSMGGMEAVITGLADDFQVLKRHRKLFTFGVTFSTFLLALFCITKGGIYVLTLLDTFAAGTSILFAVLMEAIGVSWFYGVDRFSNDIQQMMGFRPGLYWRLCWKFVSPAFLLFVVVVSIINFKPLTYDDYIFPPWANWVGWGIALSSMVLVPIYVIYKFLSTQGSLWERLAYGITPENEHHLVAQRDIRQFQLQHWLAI

[20] = molecular target: Glucocorticoid receptor (Homo sapiens) (UniProt P04150); test: GR Eurofins-Cerep binding assay; details: Compound concentration 10.0 uM
Glucocorticoid receptor (Homo sapiens), sequence (P04150 whole entry): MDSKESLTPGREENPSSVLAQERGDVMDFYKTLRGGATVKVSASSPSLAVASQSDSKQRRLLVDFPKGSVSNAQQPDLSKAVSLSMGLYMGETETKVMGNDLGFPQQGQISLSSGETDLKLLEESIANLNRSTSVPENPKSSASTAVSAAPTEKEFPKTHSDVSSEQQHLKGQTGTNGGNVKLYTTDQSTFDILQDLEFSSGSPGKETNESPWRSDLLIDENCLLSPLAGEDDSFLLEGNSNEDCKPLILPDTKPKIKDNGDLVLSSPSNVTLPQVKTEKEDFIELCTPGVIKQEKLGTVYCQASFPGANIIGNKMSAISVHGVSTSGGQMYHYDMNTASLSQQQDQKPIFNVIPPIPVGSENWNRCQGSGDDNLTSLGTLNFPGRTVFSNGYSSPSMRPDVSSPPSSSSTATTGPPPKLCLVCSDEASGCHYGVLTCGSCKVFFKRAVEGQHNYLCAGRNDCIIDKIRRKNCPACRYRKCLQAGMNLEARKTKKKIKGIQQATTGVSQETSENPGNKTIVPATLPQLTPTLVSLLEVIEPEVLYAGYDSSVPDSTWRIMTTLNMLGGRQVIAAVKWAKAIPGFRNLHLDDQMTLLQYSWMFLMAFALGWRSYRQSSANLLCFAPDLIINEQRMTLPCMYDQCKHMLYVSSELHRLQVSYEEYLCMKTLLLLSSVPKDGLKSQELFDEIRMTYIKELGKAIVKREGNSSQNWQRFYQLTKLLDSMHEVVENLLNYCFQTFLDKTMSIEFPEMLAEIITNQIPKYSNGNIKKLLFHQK

[21] = molecular target: Beta-2 adrenergic receptor (Homo sapiens) (UniProt P07550); test: beta 2 Eurofins-Cerep binding assay; details: Compound concentration 10.0 uM
[22] = molecular target: Calcitonin-gene-related peptide receptor; CALCRL/RAMP1 (Rattus norvegicus) (UniProt Q63118+Q9JJ74); test: Activity against CGRP/R in the Eurofins Panlabs screen (BI) by Radioactive Assay; type: protein-complex assay; details: Compound concentration 10.0 uM
[23] = molecular target: Alpha-2A adrenergic receptor (Oryctolagus cuniculus) (UniProt Q5ZQK3); test: Activity against ALPHA2A/RB in the Eurofins Panlabs screen (BI) by Radioactive Assay; details: Compound concentration 10.0 uM
Alpha-2A adrenergic receptor (Oryctolagus cuniculus), sequence (Q5ZQK3 as listed by the source): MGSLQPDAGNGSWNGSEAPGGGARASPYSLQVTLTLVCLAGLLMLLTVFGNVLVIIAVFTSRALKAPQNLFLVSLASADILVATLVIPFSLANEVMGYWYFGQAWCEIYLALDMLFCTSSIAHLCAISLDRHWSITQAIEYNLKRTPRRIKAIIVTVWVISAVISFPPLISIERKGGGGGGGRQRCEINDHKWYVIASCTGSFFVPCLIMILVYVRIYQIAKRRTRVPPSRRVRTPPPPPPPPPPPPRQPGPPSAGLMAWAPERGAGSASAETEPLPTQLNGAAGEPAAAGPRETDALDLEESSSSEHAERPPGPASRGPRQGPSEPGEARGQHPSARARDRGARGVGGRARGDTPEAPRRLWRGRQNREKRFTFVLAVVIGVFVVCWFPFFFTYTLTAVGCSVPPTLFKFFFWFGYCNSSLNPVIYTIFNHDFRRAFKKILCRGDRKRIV

[24] = molecular target: 5-hydroxytryptamine receptor 1A (Rattus norvegicus) (UniProt P19327); test: Activity against 5HT1A/R in the Eurofins Panlabs screen (BI) by Radioactive Assay; details: Compound concentration 10.0 uM
5-hydroxytryptamine receptor 1A (Rattus norvegicus), sequence (P19327 whole entry): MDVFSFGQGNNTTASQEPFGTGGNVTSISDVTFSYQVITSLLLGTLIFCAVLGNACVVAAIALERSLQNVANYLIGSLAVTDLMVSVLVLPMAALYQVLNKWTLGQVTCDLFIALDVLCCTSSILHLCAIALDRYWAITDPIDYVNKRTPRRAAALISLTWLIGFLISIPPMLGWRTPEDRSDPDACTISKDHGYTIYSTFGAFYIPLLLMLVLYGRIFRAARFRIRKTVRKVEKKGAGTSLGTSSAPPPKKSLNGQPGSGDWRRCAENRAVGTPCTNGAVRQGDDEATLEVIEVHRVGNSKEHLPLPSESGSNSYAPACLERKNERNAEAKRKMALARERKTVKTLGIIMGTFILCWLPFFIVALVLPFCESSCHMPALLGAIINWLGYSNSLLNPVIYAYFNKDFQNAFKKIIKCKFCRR

[25] = molecular target: Protein kinase C gamma type (Homo sapiens) (UniProt P05129); test: Inhibitor of PKCGAMMA in the Eurofins Panlabs screen (BI) by Radioactive Assay; details: Compound concentration 10.0 uM
[26] = molecular target: Beta-1 adrenergic receptor (Oryctolagus cuniculus) (UniProt A0A4Y6F0G0); test: Activity against BETA1/RB in the Eurofins Panlabs screen (BI) by Radioactive Assay; details: Compound concentration 10.0 uM
Beta-1 adrenergic receptor (Oryctolagus cuniculus), sequence (A0A4Y6F0G0 as listed by the source): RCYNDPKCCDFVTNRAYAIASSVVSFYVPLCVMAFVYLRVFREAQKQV

[27] = molecular target: D(3) dopamine receptor (Homo sapiens) (UniProt P35462); test: Activity against D3/HU in the Eurofins Panlabs screen (BI) by Scintillation counting; details: Compound concentration 10.0 uM
[28] = molecular target: Glycine receptor (Rattus norvegicus) (UniProt P22771+P24524+P07727+P20781); test: Activity against GLYCINSTRS in the Eurofins Panlabs screen (BI) by Radioactive Assay; type: protein-complex assay; details: Compound concentration 10.0 uM
[29] = molecular target: G_PROTEIN_RECEP_F1_2 domain-containing protein (Cavia porcellus) (UniProt A0A286XTF2); test: Activity against DELTA/GP in the Eurofins Panlabs screen (BI) by Radioactive Assay; details: Compound concentration 10.0 uM
[30] = molecular target: Polyunsaturated fatty acid 5-lipoxygenase (Homo sapiens) (UniProt P09917); test: Activity against 5LO in the Eurofins Panlabs screen (BI) by Radioactive Assay; details: Compound concentration 30.0 uM
[31] = molecular target: Neuropeptide Y receptor type 4 (Rattus norvegicus, UniProt Q63447); test: Radioligand binding assay (rat NPY4R, CHO cells); type: cell-based
[32] = molecular target: Estrogen receptor (Bos taurus) (UniProt P49884); test: Activity against ESTROGEN/BO in the Eurofins Panlabs screen (BI) by Radioactive Assay; details: Compound concentration 10.0 uM
[33] = molecular target: Tyrosine-protein kinase Fyn (Homo sapiens) (UniProt P06241); test: Inhibitor of P59TYRKINFYN in the Eurofins Panlabs screen (BI) by FI - fluorescence intensity; details: Compound concentration 10.0 uM
[34] = molecular target: Prostaglandin G/H synthase 2 (Homo sapiens) (UniProt P35354); test: Inhibitor of COX-2 in the Eurofins Cerep SafetyScreen44 (BI) by Fluorimetry (Cerep_4186); details: Compound concentration 10.0 uM
Prostaglandin G/H synthase 2 (Homo sapiens), sequence (P35354 whole entry): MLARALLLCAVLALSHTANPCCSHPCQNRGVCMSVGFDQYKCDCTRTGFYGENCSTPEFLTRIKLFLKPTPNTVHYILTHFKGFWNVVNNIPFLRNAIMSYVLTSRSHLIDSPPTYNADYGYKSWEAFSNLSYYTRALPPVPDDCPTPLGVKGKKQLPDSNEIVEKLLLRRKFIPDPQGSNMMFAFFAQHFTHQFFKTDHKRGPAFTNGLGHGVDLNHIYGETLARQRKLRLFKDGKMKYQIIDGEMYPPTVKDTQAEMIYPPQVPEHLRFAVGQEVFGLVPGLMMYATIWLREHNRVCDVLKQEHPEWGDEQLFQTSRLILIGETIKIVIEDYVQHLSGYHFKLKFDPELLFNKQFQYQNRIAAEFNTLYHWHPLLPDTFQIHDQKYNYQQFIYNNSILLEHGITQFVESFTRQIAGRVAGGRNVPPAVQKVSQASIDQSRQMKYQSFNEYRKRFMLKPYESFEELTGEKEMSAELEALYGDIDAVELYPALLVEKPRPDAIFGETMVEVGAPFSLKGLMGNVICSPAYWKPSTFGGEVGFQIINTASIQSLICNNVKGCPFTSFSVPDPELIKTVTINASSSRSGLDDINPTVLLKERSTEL

[35] = molecular target: Adenosine receptor A2a (Rattus norvegicus) (UniProt P30543); test: Activity against A2A/R in the Eurofins Panlabs screen (BI) by Radioactive Assay; details: Compound concentration 10.0 uM
[36] = molecular target: Gamma-aminobutyric acid receptor subunit alpha-1 (Rattus norvegicus) (UniProt P62813); test: Agonist activity in the Eurofins Panlabs screen (BI) against GABAA-AGSI/R by Scintillation counting; details: Compound concentration 10.0 uM
Gamma-aminobutyric acid receptor subunit alpha-1 (Rattus norvegicus), sequence (P62813 whole entry): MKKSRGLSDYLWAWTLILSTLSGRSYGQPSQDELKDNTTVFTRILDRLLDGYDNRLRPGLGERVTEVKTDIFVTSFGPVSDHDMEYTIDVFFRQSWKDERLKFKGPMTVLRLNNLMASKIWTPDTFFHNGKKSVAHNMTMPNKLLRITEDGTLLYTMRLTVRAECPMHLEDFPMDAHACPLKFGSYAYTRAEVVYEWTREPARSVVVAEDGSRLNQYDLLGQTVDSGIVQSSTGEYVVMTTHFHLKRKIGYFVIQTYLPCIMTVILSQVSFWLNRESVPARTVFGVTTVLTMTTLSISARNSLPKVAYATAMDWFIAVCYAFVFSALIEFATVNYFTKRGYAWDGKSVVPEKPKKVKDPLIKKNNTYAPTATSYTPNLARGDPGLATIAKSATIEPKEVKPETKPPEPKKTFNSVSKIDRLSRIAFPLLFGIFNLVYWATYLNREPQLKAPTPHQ

[37] = species on record: Homo sapiens; test: Agonist activity in the Eurofins Cerep SafetyScreen44 (BI) against N_NEURO_A4B2 by Radioligand Binding (Cerep_3029); type: protein-complex assay; details: Compound concentration 10.0 uM
[38] = molecular target: Histamine H1 receptor (Homo sapiens) (UniProt P35367); test: H1 Eurofins-Cerep binding assay; set-up: ligand concentration 1 nM; details: Compound concentration 10.0 uM
[39] = molecular target: Vasopressin V1a receptor (Rattus norvegicus) (UniProt P30560); test: Activity against V1/RA in the Eurofins Panlabs screen (BI) by Radioactive Assay; details: Compound concentration 10.0 uM
[40] = molecular target: cGMP-inhibited 3',5'-cyclic phosphodiesterase 3A (Homo sapiens) (UniProt Q14432); test: Inhibitor of PDE3A in the Eurofins Cerep SafetyScreen44 (BI) by HTRF-homogeneous time resolved fluoresce (Cerep_4072); details: Compound concentration 10.0 uM
cGMP-inhibited 3',5'-cyclic phosphodiesterase 3A (Homo sapiens), sequence (Q14432 whole entry): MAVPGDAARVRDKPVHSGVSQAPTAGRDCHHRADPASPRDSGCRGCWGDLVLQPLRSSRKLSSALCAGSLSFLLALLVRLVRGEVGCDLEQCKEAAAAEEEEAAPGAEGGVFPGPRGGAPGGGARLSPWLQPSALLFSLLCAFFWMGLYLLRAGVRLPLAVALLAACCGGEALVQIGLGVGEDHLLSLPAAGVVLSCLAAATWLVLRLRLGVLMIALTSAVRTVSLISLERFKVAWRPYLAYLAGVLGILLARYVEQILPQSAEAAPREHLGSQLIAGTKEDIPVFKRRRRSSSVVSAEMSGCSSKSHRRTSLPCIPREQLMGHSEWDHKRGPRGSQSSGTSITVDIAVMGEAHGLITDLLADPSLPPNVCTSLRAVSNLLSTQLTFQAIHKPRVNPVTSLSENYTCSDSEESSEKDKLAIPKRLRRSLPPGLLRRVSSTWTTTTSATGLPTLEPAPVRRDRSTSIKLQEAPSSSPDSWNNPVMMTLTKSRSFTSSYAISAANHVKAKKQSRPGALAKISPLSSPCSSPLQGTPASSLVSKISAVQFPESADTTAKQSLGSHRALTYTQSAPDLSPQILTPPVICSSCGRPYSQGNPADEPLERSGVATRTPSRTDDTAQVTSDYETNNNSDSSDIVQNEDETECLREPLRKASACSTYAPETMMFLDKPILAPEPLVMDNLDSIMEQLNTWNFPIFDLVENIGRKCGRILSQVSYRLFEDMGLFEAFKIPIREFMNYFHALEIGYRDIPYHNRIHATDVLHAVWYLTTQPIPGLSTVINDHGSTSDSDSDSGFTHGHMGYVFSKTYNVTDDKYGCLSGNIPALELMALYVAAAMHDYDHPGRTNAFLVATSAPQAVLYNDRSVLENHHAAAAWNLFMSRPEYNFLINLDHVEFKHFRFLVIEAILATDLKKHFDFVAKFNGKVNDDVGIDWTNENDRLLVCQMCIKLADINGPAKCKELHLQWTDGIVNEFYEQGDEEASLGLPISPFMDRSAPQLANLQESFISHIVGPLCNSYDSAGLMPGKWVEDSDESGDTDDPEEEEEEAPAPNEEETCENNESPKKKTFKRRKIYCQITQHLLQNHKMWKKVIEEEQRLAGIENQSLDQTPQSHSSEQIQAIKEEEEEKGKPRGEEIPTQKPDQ

- residual activity [1]: 89%
- residual activity [2]: 99%
- residual activity [3]: 86%
- residual activity [5]: 107%
- residual activity [6]: 104%
- residual activity [7]: 98%
- residual activity [8]: 97%
- residual activity [9]: 95%
- residual activity [10]: 94%
- residual activity [11]: 80%
- residual activity [12]: 119%
- residual activity [13]: 117%
- residual activity [14]: 57%
- residual activity [15]: 99%
- residual activity [17]: 100%
- residual activity [18]: 109%
- residual activity [19]: 91%
- residual activity [20]: 98%
- residual activity [21]: 108%
- residual activity [22]: 92%
- residual activity [23]: 82%
- residual activity [24]: 81%
- residual activity [25]: 92%
- residual activity [26]: 82%
- residual activity [27]: 98%
- residual activity [28]: 81%
- residual activity [29]: 80%
- residual activity [30]: 97%
- IC50 [31]: > 10 µM (not active)
- residual activity [32]: 85%
- residual activity [33]: 84%
- residual activity [35]: 97%
- residual activity [36]: 104%
- residual activity [38]: 75%
- residual activity [39]: 98%
Compound: N=C(N)NCCC[C@@H](NC(=O)C(c1ccccc1)c1ccccc1)C(=O)NCc1ccc(CNC(N)=O)cc1
- activity at 10 µM [4]: 79% (not active)
- residual activity [16]: 83%
- residual activity [34]: 61%
- residual activity [37]: 110%
- residual activity [40]: 84%
